Among the data in patent publication US20040186081A1, “Naaladase inhibitors for treating opioid tolerance” (Guilford Pharmaceuticals Inc., priority 2003, published 2004) are Ki and IC50 values, retold here.

pIC50, pKi: −log10 of the molar value.

Chain of NAALADase (Q04609 whole entry): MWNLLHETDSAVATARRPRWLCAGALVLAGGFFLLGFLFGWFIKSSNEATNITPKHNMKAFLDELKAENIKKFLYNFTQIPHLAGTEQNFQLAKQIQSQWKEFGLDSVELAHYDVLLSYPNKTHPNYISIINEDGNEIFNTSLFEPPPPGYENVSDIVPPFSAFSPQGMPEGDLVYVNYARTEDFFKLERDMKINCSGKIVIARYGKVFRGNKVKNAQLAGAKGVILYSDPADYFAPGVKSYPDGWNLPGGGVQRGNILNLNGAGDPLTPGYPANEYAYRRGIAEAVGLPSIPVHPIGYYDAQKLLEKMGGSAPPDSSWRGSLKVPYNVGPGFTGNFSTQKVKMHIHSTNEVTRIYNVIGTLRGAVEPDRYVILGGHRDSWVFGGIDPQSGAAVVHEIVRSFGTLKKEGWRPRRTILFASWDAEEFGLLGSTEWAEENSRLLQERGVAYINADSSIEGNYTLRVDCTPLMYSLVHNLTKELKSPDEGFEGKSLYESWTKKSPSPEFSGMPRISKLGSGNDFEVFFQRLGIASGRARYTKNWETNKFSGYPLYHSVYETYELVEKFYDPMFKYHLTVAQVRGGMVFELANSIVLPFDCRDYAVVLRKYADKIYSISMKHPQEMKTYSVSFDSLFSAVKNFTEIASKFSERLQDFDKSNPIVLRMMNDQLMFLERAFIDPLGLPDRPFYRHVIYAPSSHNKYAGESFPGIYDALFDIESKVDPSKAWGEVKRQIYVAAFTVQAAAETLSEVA

One assay concerns the target NAALADase (Homo sapiens, UniProt Q04609). As to the kind of experiment: In vitro inhibition of NAALADase activity. Format: biochemical.
Settings: not given
For orientation: pKi means the Ki on a negative log10 scale, so that one unit is a factor of ten. Read a low pKi as a high Ki. Molecule `O=C(O)c1ccc(OCCCSSCCCOc2ccc(C(=O)O)cc2C(=O)O)c(C(=O)O)c1` [4-[3-[[3-(2,4-dicarboxyphenoxy)-propyl]-dithio]propoxy]-1,3-benzenedicarboxylic acid] gave a negative logarithm of the Ki (pKi) of 5.43.
`O=C(O)c1ccc(C(=O)O)c(Sc2ccccc2C(=O)O)c1` [2-[(2-carboxyphenyl)thio]-1,4-benzenedicarboxylic acid] showed a negative logarithm of the Ki (pKi) of 6.24.
On the same count and under the same terms, as for `O=C(O)c1cc(C(=O)O)cc(P(=O)(O)O)c1` [5-phosphono-1,3-benzenedicarboxylic acid], the figure is 4.85; as for `O=C(O)c1cc(OCCS)cc(C(=O)O)c1` [5-(2-mercaptoethoxy)-1,3-benzenedicarboxylic acid], 4.84.

Still in this assay, the particulars now being: read-out: IC50.
Usually pIC50 stands for the negative decadic logarithm of the IC50, by convention in mol/L. Consider `O=C(COc1ccccc1C(=O)O)NO` [2-Hydroxycarbamoylmethoxy-benzoic acid], for which the pIC50 was no more than 4.00.
In the case of `NC(=O)c1ccccc1CC(CCCS)C(=O)O` (stereo not drawn) [2-(aminocarbonyl)-alpha-(3-mercaptopropyl)-benzenepropanoic acid], the pIC50 was 5.40.
For the molecule `O=C(NO)c1ccc(OCc2ccccc2)c(C(=O)O)c1` [6-Benzyloxy-N-hydroxy-isophthalamic acid], the negative logarithm of the IC50 (pIC50) is no more than 4.00.
Still for that read-out and setting: as for `COC(=O)c1cccc(-c2cccc(OCCC(=O)NO)c2C(=O)OC)c1` [3-(2-Hydroxycarbamoyl-ethoxy)-biphenyl-2,3′-dicarboxylic acid dimethyl ester], the figure is no more than 4.00; as for `CC(=O)c1cccc(OC(CCCS)C(=O)O)c1` (centres unmarked) [2-(3-acetylphenoxy)-5-mercapto-pentanoic acid], 5.54; as for `O=C(O)c1ccccc1CC(CCCS)C(=O)O` (stereo not drawn) [2-carboxy-alpha-(3-mercaptopropyl)-benzenepropanoic acid], 5.77.
Turning to `O=C(CSCCCC(Cc1cc(Br)cc(C(=O)O)c1)C(=O)O)NO` (centres unmarked) [3-Bromo-5-(2-carboxy-5-hydroxycarbamoyl-methylsulfanylpentyl)-benzoic acid], the negative logarithm of the IC50 (pIC50) was 5.61.
For `O=C(CSCc1ccc(OCc2ccc(C(=O)O)cc2)c(C(=O)O)c1)NO`, the negative logarithm of the IC50 (pIC50) is 5.88.
`COC(=O)c1cc(C(=O)NO)ccc1OCc1ccccc1` [6-Benzyloxy-N-hydroxy-isophthalamic acid methyl ester]: the negative logarithm of the IC50 (pIC50) was no more than 4.00.
Same read-out and setting: the same measure for `O=C(O)c1cccc(CC(CCCS)C(=O)O)c1-c1ccccc1` (centres unmarked) [6-(2-carboxy-5-mercaptopentyl)-[1,1′-biphenyl]-2-carboxylic acid]: 7.15; for `O=C(O)c1ccc(F)c(OC(CCCS)C(=O)O)c1` (centres unmarked) [3-(1-carboxy-4-mercaptobutoxy)-4-fluoro-benzoic acid]: 6.40.
With `O=C(O)C(CCCS)Cc1ccccc1Cl` (stereo not drawn) [2-chloro-alpha-(3-mercaptopropyl)-benzenepropanoic acid], the negative logarithm of the IC50 (pIC50) was 5.87.
Same read-out and setting: as for `O=C(CCCCSCCCC(Cc1cccc(C(=O)O)c1)C(=O)O)NO` (centres unmarked) [3-[2-Carboxy-5-(4-hydroxycarbamoyl-butylsulfanyl)-pentyl]-benzoic acid], the figure is 5.12; as for `O=C(O)c1cccc(-c2cccc(CC(CCCS)C(=O)O)c2)c1` (centres unmarked) [3′-(2-carboxy-5-mercaptopentyl)-[1,1′-biphenyl]-3-carboxylic acid], 8.74; as for `O=C(O)c1cccc(CC(CCCS)C(=O)O)c1Cl` (stereo not drawn) [3-carboxy-2-chloro-alpha-(3-mercaptopropyl)-benzenepropanoic acid], 5.92.
Take `CC(S)CCC(Cc1cccc(C(=O)O)c1)C(=O)O` (stereo not drawn) [3-carboxy-alpha-(3-mercaptobutyl)-benzenepropanoic acid]: the negative logarithm of the IC50 (pIC50) is 7.52.
For the molecule `O=C(O)COc1cccc(CCS)c1C(=O)O` [2-(carboxymethoxy)-6-(2-mercaptoethyl)-benzoic acid], the pIC50 was 6.67.
As to `O=C(O)c1ccc(COc2ccc(CCS)c(C(=O)O)c2)cc1` [5-[(4-carboxyphenyl)methoxy]-2-(2-mercaptoethyl)-benzoic acid], the pIC50 is 7.15.
For the molecule `O=C(O)CCC(CCCSCC(=O)NO)C(=O)O` (centres unmarked) [2-(3-Hydroxycarbamoyl-methylsulfanylpropyl)-pentanedioic acid], the pIC50 was 5.52.
Consider `O=C(O)c1cc(Br)cc(CC(CCCS)C(=O)O)c1` (stereo not drawn) [3-bromo-5-carboxy-alpha-(3-mercaptopropyl)-benzenepropanoic acid], for which the pIC50 was 8.60.
With `O=C(O)c1cccc(CC(C(=O)O)C(=O)NO)c1` (centres unmarked) [3-(2-Carboxy-2-hydroxycarbamoyl-ethyl)-benzoic acid], the negative-log IC50 (pIC50) is 5.34.
Still for that read-out and setting: the same measure for `O=C(CSCCCC(Cc1cccc(C(=O)O)c1)C(=O)O)NO` (centres unmarked) [3-(2-Carboxy-5-hydroxycarbamoylmethyl-sulfanylpentyl)-benzoic acid]: 6.42; for `CCC(SCCCC(Cc1cccc(C(=O)O)c1)C(=O)O)C(=O)NO` (centres unmarked) [3-[2-Carboxy-5-(1-hydroxycarbamoyl-propylsulfanyl)-pentyl]-benzoic acid]: 5.48.
Regarding `CN(O)C(=O)CSCCCC(Cc1cccc(C(=O)O)c1)C(=O)O` (centres unmarked) [3-{2-Carboxy-5-[(hydroxy-methyl-carbamoyl)-methylsulfanyl]-pentyl}-benzoic acid], the pIC50 is 4.83.
In the case of `O=C(O)Cc1ccc(CC(CCCS)C(=O)O)cc1` (stereo not drawn) [4-(carboxymethyl)-alpha-(3-mercaptopropyl)-benzenepropanoic acid], the negative-log IC50 (pIC50) is 6.09.
Still for that read-out and setting: as for `O=C(O)c1ccc(COc2cccc(CCS)c2C(=O)O)cc1` [2-[(4-carboxyphenyl)methoxy]-6-(2-mercaptoethyl)-benzoic acid], the figure is 8.40; as for `CC(=O)c1ccc(OC(CCCS)C(=O)O)cc1` (centres unmarked) [2-(4-acetylphenoxy)-5-mercaptopentanoic acid], 7.53.
Consider `Cc1ccc(C(=O)c2ccccc2C(=O)NO)cc1` [N-Hydroxy-2-(4-methyl-benzoyl)-benzamide], for which the negative-log IC50 (pIC50) was no more than 4.00.
On to `O=C(CSCCCC(Cc1cccc(-c2cccc(C(=O)O)c2)c1)C(=O)O)NO` (centres unmarked) [3′-(2-Carboxy-5-hydroxycarbamoylmethylsulfanyl-pentyl)-biphenyl-3-carboxylic acid], for which the pIC50 was 4.63.
For the molecule `O=C(O)c1ccccc1CCS` [2-(2-mercaptoethyl)-benzoic acid], the pIC50 was 6.21.
Take `O=C(O)C(CCCS)Cc1cccc(-c2ccccc2)c1` (stereo not drawn) [alpha-(3-mercaptopropyl)-3-phenyl-benzenepropanoic acid]: the negative-log IC50 (pIC50) is 6.74.
`CC(C)(C)c1cc(CC(CCC(=O)NO)C(=O)O)cc(C(=O)O)c1` (centres unmarked) [3-tert-Butyl-5-(2-carboxy-4-hydroxycarbamoyl-butyl)-benzoic acid]: the pIC50 is 9.70.
Consider `O=C(O)c1ccc(Cl)c(OC(CCCS)C(=O)O)c1` (centres unmarked) [3-(1-carboxy-4-mercaptobutoxy)-4-chloro-benzoic acid], for which the pIC50 was 6.93.
Consider `O=C(O)c1cccc(SC(CCCS)C(=O)O)c1` (centres unmarked) [3-[1-carboxy-4-mercaptobutyl)thio]-benzoic acid], for which the negative logarithm of the IC50 (pIC50) is 7.62.
On the same count and under the same terms, as for `O=C(O)C(CCCS)Cc1ccccc1` (stereo not drawn) [alpha-(3-mercaptopropyl)-benzenepropanoic acid], the figure is 5.64; as for `O=C(COc1cc(C(=O)O)cc(C(=O)O)c1)NO` [5-Hydroxycarbamoylmethoxy-isophthalic acid], 4.83; as for `O=C(O)C(CCCS)Cc1ccc(O)cc1` (stereo not drawn) [4-hydroxy-alpha-(3-mercaptopropyl)-benzenepropanoic acid], 5.67.
